# Test results: patent publication US9815796B2 (Merck Sharp & Dohme Corp., priority 2013, dated 2017)
# Like-named read-outs stand apart in the source and are kept apart here.
# Legend:
# human PDE2A1 = human PDE2A1 (Homo sapiens (Human), UniProt O00408); experiment: IMAP FP PDE selectivity panel, human PDE2A1; type: biochemical
# In short: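 GST-tagged human PDE2A1 expressed in insect cells, run at room temperature for 60 min with 50 nM FAM-cAMP containing 1000 nM cGMP, pH 7.2 Tris/MgCl2 buffer. IMAP fluorescence polarization read after binding step.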
# Rhesus PDE2A3 = Rhesus PDE2A3 (Macaca mulatta, UniProt B3VTJ2); experiment: PDE2 fluorescence polarization (IMAP FP) inhibition assay, rhesus enzyme; type: biochemical, rhesus macaque
# In short: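 Rhesus PDE2A3 came from lysate of transiently transfected AD293 cells, diluted to give 20% substrate conversion. Substrate was 50 nM FAM-cAMP with 1 uM cGMP activator in Tris pH 7.2/MgCl2 buffer, run 60 min at room temperature over 10-point 3-fold dilutions in 1% DMSO. Read-out was IMAP fluorescence polarization (mP) after ≥1 h binding.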
# [1] = Human PDE2, Lab B, read-out: Human PDE2 Ki (nM) - Lab B
# [2] = Rhesus PDE2, Lab B, read-out: Rhesus PDE2 Ki (nM) - Lab B
# [3] = Human PDE2, Lab A, read-out: Human PDE2 Ki (nM) - Lab A
# [4] = Rhesus PDE2, Lab A, read-out: Rhesus PDE2 Ki (nM) - Lab A
# Chain of Rhesus PDE2A3 (B3VTJ2 1-941): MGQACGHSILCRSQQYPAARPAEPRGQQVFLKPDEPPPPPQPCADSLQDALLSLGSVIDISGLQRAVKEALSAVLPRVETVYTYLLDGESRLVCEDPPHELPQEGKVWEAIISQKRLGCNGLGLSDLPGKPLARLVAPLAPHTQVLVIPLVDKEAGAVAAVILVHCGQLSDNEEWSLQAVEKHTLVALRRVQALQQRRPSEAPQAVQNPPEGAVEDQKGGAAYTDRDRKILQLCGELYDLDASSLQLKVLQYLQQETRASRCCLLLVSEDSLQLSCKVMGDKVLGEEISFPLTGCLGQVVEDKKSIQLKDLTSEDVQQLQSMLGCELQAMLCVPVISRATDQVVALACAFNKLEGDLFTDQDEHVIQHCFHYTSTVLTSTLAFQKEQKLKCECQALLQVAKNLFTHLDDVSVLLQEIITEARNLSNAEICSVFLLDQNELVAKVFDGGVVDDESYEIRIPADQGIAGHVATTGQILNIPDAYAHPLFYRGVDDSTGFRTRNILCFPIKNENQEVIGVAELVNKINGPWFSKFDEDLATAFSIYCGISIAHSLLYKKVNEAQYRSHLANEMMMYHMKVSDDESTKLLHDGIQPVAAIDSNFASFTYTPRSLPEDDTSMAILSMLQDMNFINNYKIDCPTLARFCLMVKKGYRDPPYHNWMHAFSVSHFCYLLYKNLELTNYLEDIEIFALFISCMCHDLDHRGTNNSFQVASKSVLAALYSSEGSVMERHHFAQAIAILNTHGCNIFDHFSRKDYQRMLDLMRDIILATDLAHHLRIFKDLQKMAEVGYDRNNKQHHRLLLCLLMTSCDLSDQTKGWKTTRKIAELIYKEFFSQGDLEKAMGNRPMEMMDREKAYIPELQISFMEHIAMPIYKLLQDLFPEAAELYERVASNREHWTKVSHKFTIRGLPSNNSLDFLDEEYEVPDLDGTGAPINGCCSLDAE
# Chain of human PDE2A1 (O00408 other isoform, or with tags, fused parts or gaps): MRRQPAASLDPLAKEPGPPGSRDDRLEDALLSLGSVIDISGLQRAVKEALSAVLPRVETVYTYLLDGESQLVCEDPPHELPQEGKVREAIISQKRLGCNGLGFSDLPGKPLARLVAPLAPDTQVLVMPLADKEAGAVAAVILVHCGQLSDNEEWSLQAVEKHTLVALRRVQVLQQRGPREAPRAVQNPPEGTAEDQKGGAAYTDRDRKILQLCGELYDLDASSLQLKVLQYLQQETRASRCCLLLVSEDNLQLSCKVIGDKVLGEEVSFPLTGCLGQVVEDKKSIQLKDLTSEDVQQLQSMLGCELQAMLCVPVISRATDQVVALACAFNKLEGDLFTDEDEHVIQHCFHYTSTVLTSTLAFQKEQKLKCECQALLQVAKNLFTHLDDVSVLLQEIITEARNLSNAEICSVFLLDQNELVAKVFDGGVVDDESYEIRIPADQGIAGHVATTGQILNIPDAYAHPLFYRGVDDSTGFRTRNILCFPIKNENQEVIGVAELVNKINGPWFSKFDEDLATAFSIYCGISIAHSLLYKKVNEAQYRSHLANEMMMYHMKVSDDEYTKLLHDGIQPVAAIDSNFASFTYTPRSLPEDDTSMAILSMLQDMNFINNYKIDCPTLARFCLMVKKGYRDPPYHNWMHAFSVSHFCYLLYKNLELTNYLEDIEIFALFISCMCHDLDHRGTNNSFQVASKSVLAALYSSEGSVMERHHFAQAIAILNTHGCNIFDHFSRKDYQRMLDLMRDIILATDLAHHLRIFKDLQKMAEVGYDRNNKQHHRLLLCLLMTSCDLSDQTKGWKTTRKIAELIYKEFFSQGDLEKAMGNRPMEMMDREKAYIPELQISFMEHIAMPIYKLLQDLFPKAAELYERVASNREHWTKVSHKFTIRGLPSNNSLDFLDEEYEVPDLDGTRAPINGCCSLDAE
Compound,Ki (human PDE2A1; [1]) [nM],Ki (Rhesus PDE2A3; [2]) [nM],Ki (human PDE2A1; [3]) [nM],Ki (Rhesus PDE2A3; [4]) [nM]
"Cc1nc(C(=O)N[C@@H](c2ccc(C(F)(F)F)cc2)[C@@H](C)O)cc(=O)[nH]1 [Example 65, N-((1S,2R)-2-hydroxy-1-(4-(trifluoromethyl)phenyl)propyl)-2-methyl-6-oxo-1,6-dihydropyrimidine-4-carboxamide]",–,–,18,38
"CC[C@@H](NC(=O)c1cc(=O)[nH]c(-c2ccccc2)n1)c1ccc(OC(F)(F)F)cc1 [Example 179, 6-oxo-2-phenyl-N-{(1R)-1-[4-(trifluoromethoxy)phenyl]propyl}-1,6-dihydropyrimidine-4-carboxamide]",–,–,2.2,4
"C[C@@H](NC(=O)c1cc(=O)[nH]c(-c2ccccc2)n1)c1ccc(CC(F)(F)F)cc1 [Example 183, 6-oxo-2-phenyl-N-{(1R)-1-[4-(2,2,2-trifluoromethyl)phenyl]ethyl}-1,6-dihydropyrimidine-4-carboxamide]",–,–,4.1,6.4
"CCc1nc(C(=O)N[C@@H](C)c2ccc(C(F)(F)F)cc2)cc(=O)[nH]1 [Example 135, 2-ethyl-6-oxo-N-{(1S)-1-[4-(trifluoromethyl)phenyl]ethyl}-1,6-dihydropyrimidine-4-carboxamide]",–,–,1140,1650
"O=C(N[C@@H](c1ccc(SC(F)(F)F)cc1)C1CC1)c1cc(=O)[nH]c(-c2ccccc2)n1 [Example 178, N-[(R)-cyclopropyl{4-[(trifluoromethyl)sulfanyl]phenyl}methyl]-6-oxo-2-phenyl-1,6-dihydropyrimidine-4-carboxamide]",–,–,2.4,3.3
"Cc1nc(C(=O)N[C@@H](c2ccc(OC(F)(F)F)cc2)C(C)C)cc(=O)[nH]1 [Example 32, 2-methyl-N-{(1R)-2-methyl-1-[4-(trifluoromethoxy)phenyl]propyl}-6-oxo-1,6-dihydropyrimidine-4-carboxamide]",–,–,5.1,11
"COCc1nc(C(=O)N[C@@H](c2ccc(OC(F)(F)F)c(F)c2)C2CC2)cc(=O)[nH]1 [Example 117, N-{(R)-cyclopropyl[3-fluoro-4-(trifluoromethoxy)phenyl]methyl}-2-(methoxymethyl)-6-oxo-1,6-dihydropyrimidine-4-carboxamide]",42,–,~13,80
"O=C(NC1(c2ccc(SC(F)(F)F)cc2)CC1)c1cc(=O)[nH]c(C2CC2)n1 [Example 199, 2-cyclopropyl-6-oxo-N-(1-{4-[(trifluoromethyl)sulfanyl]phenyl}cyclopropyl)-1,6-dihydropyrimidine-4-carboxamide]",–,–,7,12
"C[C@@H](NC(=O)c1cc(=O)[nH]c(-c2ncccn2)n1)c1ccc(SC(F)(F)F)c(F)c1 [Example 260, N-[(1R)-1-{3-fluoro-4-[(trifluoromethyl)sulfanyl]phenyl}ethyl]-6-oxo-1,6-dihydro-2,2′-bipyrimidine-4-carboxamide]",1.8,1.8,–,1
"CC[C@@H](NC(=O)c1cc(=O)[nH]c(-c2ccccc2)n1)c1ccc(SC(F)(F)F)cc1 [Example 151, 6-oxo-2-phenyl-N-[(1R)-1-{4-[(trifluoromethyl)sulfanyl]phenyl}propyl]-1,6-dihydropyrimidine-4-carboxamide]",–,–,3.2,3.3
"CC[C@@H](NC(=O)c1cc(=O)[nH]c(C2CC2)n1)c1ccc(C(F)(F)F)c(F)c1 [Example 254, 2-cyclopropyl-N-{(1R)-1-[3-fluoro-4-(trifluoromethyl)phenyl]propyl}-6-oxo-1,6-dihydropyrimidine-4-carboxamide]",22,23,~13,17
"CC(NC(=O)c1cc(=O)[nH]c(-c2ccccc2)n1)c1ccc(C(F)(F)F)cc1Cl (stereo not shown) [Example 147, N-{1-[2-chloro-4-(trifluoromethyl)phenyl]ethyl}-6-oxo-2-phenyl-1,6-dihydropyrimidine-4-carboxamide]",–,–,35,51
"CC(C)c1ccc([C@@H](C)NC(=O)c2cc(=O)[nH]c(C3CC3)n2)cc1 [Example 298, 2-cyclopropyl-N-{(1R)-1-[4-(1-methylethyl)phenyl]ethyl}-6-oxo-1,6-dihydropyrimidine-4-carboxamide]",–,–,13,18
Cc1nc(C(=O)NC2(c3ccc(OC(F)(F)F)cc3)CCC2)cc(=O)[nH]1 [Example 269],96,–,118,158
"CC[C@@H](NC(=O)c1cc(=O)[nH]c(C2CC2)n1)c1ccc(S(F)(F)(F)(F)F)cc1 [Example 242, 2-cyclopropyl-6-oxo-N-{(1R)-1-[4-(pentafluoro-λ^6-sulfanyl)phenyl]propyl}-1,6-dihydropyrimidine-4-carboxamide]",9.2,10,–,5

# Other lines, results leading:
Ki (human PDE2A1; [1]) [nM],Ki (Rhesus PDE2A3; [2]) [nM],Ki (human PDE2A1; [3]) [nM],Ki (Rhesus PDE2A3; [4]) [nM],Compound
> 1240,> 2970,–,–,"Cc1nc(C(=O)NC(C)c2ccc(C(C)(C)C(F)(F)F)cc2)cc(=O)[nH]1 (single isomer, unassigned) [Example 694, (S)- or (R)-2-methyl-6-oxo-N-(1-(4-(1,1,1-trifluoro-2-methylpropan-2-yl)phenyl)ethyl)-1,6-dihydropyrimidine-4-carboxamide]"
1.1,1.2,–,0.4,"CC(C)(C)[C@@H](NC(=O)c1cc(=O)[nH]c(-c2ccccc2)n1)c1ccc(C(F)(F)F)cc1 [Example 337, N-{(1R)-2,2-dimethyl-1-[4-(trifluoromethyl)phenyl]propyl}-6-oxo-2-phenyl-1,6-dihydropyrimidine-4-carboxamide]"
3.2,3.5,–,–,"CC(C)(C)[C@@H](NC(=O)c1cc(=O)[nH]c(C2CC2)n1)c1ccc(OC(F)F)cc1 [Example 436, 2-cyclopropyl-N-{(1R)-1-[4-(difluoromethoxy)phenyl]-2,2-dimethylpropyl}-6-oxo-1,6-dihydropyrimidine-4-carboxamide]"
30,29,–,–,"Cc1nc(C(=O)N[C@@H](c2ccc(OC(F)F)cc2)C2(C)CC2)cc(=O)[nH]1 [Example 425, N-[(R)-[4-(difluoromethoxy)phenyl](1-methylcyclopropyl)methyl]-2-methyl-6-oxo-1,6-dihydropyrimidine-4-carboxamide]"
2.1,2.1,–,–,"COc1ccc(Cc2nc(C(=O)N[C@@H](c3ccc(OC(F)(F)F)cc3)C3CC3)cc(=O)[nH]2)cc1F [Example 524, N-{(R)-cyclopropyl[4-(trifluoromethoxy)phenyl]methyl}-2-(3-fluoro-4-methoxybenzyl)-6-oxo-1,6-dihydropyrimidine-4-carboxamide]"
46,54,–,–,"COc1ccc(C(C)(C)c2nc(C(=O)N[C@@H](c3ccc(OC(F)(F)F)cc3)C(C)C)cc(=O)[nH]2)cc1 [Example 494, 2-[1-(4-methoxyphenyl)-1-methylethyl]-N-{(1R)-2-methyl-1-[4-(trifluoromethoxy)phenyl]propyl}-6-oxo-1,6-dihydropyrimidine-4-carboxamide]"
19,24,–,~11,"CSCC(NC(=O)c1cc(=O)[nH]c(-c2ccccc2)n1)c1ccc(C(F)(F)F)cc1 (stereo not shown) [Example 341, N-{2-(methylsulfanyl)-1-[4-(trifluoromethyl)phenyl]ethyl}-6-oxo-2-phenyl-1,6-dihydropyrimidine-4-carboxamide]"
83,109,–,49,"CC(C)(NC(=O)c1cc(=O)[nH]c(-c2ccccc2)n1)c1ccc(Br)cc1 [Example 340, N-[1-(4-bromophenyl)-1-methylethyl]-6-oxo-2-phenyl-1,6-dihydropyrimidine-4-carboxamide]"
0.8,0.77,–,–,"COc1ccc(Cc2nc(C(=O)N[C@@H](c3ccc(C(F)(F)F)c(F)c3)C(C)(C)C)cc(=O)[nH]2)cc1F [Example 508, 2-(3-fluoro-4-methoxybenzyl)-N-{(1R)-1-[3-fluoro-4-(trifluoromethyl)phenyl]-2,2-dimethylpropyl}-6-oxo-1,6-dihydropyrimidine-4-carboxamide]"
7.9,6.7,–,–,O=C(N[C@@H](c1ccc(SC(F)(F)F)c(F)c1)C1CC1)c1cc(=O)[nH]c(C2CC2)n1 [Example 434]
3.7,3.7,–,–,"Cc1nc(C(=O)N[C@@H](c2ccc(C(C)C)cc2)C2(C)CC2)cc(=O)[nH]1 [Example 427, 2-methyl-N-{(R)-(1-methylcyclopropyl)[4-(1-methylethyl)phenyl]methyl}-6-oxo-1,6-dihydropyrimidine-4-carboxamide]"
1,1.1,–,–,"COc1ccc(Cc2nc(C(=O)N[C@@H](c3ccc(OC(F)(F)F)c(F)c3)C(C)C)cc(=O)[nH]2)cc1F [Example 515, 2-(3-fluoro-4-methoxybenzyl)-N-{(1R)-1-[3-fluoro-4-(trifluoromethoxy)phenyl]-2-methylpropyl}-6-oxo-1,6-dihydropyrimidine-4-carboxamide]"
–,–,16,17,"Cc1nc(C(=O)NC(C)c2ccc(-c3ccccc3)cc2)cc(=O)[nH]1 (single isomer, unassigned) [Example 307, (R)- or (S)-N-(1-biphenyl-4-ylethyl)-2-methyl-6-oxo-1,6-dihydropyrimidine-4-carboxamide]"
1.6,1.5,–,–,"COc1ccc(Cc2nc(C(=O)N[C@@H](c3ccc(SC(F)(F)F)c(F)c3)C(C)C)cc(=O)[nH]2)cc1F [Example 512, 2-(3-fluoro-4-methoxybenzyl)-N-[(1R)-1-{3-fluoro-4-[(trifluoromethyl)sulfanyl]phenyl}-2-methylpropyl]-6-oxo-1,6-dihydropyrimidine-4-carboxamide]"
